Reference: patent publication US6579881B2 (Eisai Co., Ltd., priority 1997, dated 2003)

Key:
[1] = target: T1, serotonin 1A receptor (Rattus norvegicus, UniProt P19327); test: Binding test on [3H] 8-hydroxy-dipropylaminotetralin (serotonin 1A receptor); settings: [3H] 8-OH-DPAT 0.5 nM, receptor fraction of rat hippocampus; read-out: 5HT1a
T1 construct: To the receptor fraction of the hippocampus were added a test compound and 0.5 nM of [^3H]; 8-hydroxy-dipropylaminotetralin; from tissue; host or cells: SD rat hippocampus, membrane (receptor) fraction
T1 sequence (P19327 1-422): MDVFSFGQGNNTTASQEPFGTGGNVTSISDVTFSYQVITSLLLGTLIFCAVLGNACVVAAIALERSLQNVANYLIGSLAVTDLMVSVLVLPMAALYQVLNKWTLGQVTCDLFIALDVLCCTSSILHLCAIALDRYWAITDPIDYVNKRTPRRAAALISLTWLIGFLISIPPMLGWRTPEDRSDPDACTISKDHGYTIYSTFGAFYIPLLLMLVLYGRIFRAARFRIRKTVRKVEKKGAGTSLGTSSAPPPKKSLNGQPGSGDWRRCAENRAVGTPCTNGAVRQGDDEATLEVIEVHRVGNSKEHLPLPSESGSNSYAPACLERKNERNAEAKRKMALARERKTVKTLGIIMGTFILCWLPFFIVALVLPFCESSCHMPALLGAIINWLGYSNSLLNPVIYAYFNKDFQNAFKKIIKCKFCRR
Description: 3) [^3H] 8-Hydroxy-dipropylaminotetralin (8-OH-DPAT).
Use was made of SD rats aged 6 to 8 weeks.
The rats were sacrificed by dcapitation to extirpate the cerebra.
Each mixture was homogenized by using a Teflon glass homogenizer and centrifuged at 1,000×g for 10 min. The supernatant thus obtained was further centrifuged at 20,000×g for 20 min. The obtained precipitate was re-suspended in 50 times (based on the intial wet weight; in the case of the hippocampus) or 10 times (in the case of the cortex) as much a 50 mM Tris hydrochloride (pH 7.4) and incubated at room temperature for 30 min. After centrifuging at 20,000×g for 20 min, the obtained precipitate was further suspended and centrifuged twice each in the same manner. The precipitate thus obtained was suspended in 100 times (based on the initial wet weight; in the case of the hippocampus) or 20 times (in the case of the cortex) as much a 50 mM Tris hydrochloride solution (pH 7.4) to thereby give a receptor fraction. This receptor fraction was stored at −80° C. until using.
(Binding Test on [^3H] 8-hydroxy-dipropylaminotetralin)
To the receptor fraction of the hippocampus were added a test compound and 0.5 nM of [^3H] 8-hydroxy-dipropylaminotetralin and the resultant mixture was incubated at room temperature for 30 min. Next, it was filtered through a glass filter with the use of a cell harvester. After washing the glass filter with 50 mM Tris hydrochloride (pH 7.4), the radioactivity of the receptor was measured with a liquid scintillation counter. The binding detected in the presence of 10 μM of serotonin binoxalate was referred to as the nonspecific binding.
IC50 was calculated by the probit method, while Ki was determined in accordance with the following formula:
wherein c represents the concentration of the radioisotope-labeled compound, and Kd represents the dissociation constant of the radioisotope-labeled compound with respect to the receptor determined by Scatchard's analysis.

[2] = target: serotonin 2 receptor (Rattus norvegicus, UniProt P14842); test: Binding test on [3H] ketanserin (serotonin 2 receptor); settings: [3H] ketanserin 0.3 nM, receptor fraction of rat cerebral cortex; read-out: 5HT2
Chain of serotonin 2 receptor (P14842 whole entry): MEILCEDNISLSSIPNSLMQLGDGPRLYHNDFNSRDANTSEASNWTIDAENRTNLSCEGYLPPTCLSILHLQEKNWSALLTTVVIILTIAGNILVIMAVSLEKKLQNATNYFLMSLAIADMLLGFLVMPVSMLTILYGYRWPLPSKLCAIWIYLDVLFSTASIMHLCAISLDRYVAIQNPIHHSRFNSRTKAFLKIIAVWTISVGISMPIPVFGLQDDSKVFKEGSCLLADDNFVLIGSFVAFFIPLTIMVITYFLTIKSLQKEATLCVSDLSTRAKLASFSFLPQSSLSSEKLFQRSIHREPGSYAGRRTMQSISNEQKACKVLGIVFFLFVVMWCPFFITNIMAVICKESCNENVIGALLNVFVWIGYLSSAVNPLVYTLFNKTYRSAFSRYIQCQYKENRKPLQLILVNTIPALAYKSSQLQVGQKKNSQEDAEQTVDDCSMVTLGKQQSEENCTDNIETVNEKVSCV

Question: How did the Ki [1] turn out when `CN(C)c1ccc2c(c1)N(C1CCN(CCc3ccc(F)cc3)CC1)CC2` [Example 114, 1-[1-(4-fluorophenethyl)piperidin-4-yl]-6-dimethylaminoindoline] was run?
Answer: 5.8 nM

Question: What about the Ki [2] of the same compound?
Answer: 23.2 nM

Question: With `CC(=O)NCc1ccc2ccn(C3CCN(CCc4ccc(F)cc4F)CC3)c2c1` [Example 357, 1-[1-(2,4-difluorophenethyl)piperidin-4-yl]-6-acetamidomethylindole] as the compound, how does the Ki [1] read?
Answer: 0.38 nM

Question: And the Ki [2]?
Answer: 1.3 nM

Question: `CCNc1ccc(CCN2CCC(N3CCc4ccccc43)CC2)cc1` [Example 33, 1-[1-(4-ethylaminophenethyl)piperidin-4-yl]indoline] was tested. Which Ki [1] did it give?
Answer: 5.7 nM

Question: What about the Ki [2] of the same compound?
Answer: 24.3 nM

Question: How did the Ki [1] turn out when `COc1ccc2c(c1OC)N(C1CCN(CCc3ccc(F)cc3)CC1)CC2` [Example 108, 1-[1-(4-fluorophenethyl)piperidin-4-yl]-6,7-dimethoxyindoline] was run?
Answer: 172 nM

Question: What about the Ki [2] of the same compound?
Answer: 2.2 nM

Question: Which results are given for `Fc1ccc(CCN2CCC(N3CCc4ccc(Cc5ccccn5)cc43)CC2)cc1` [Example 175, 1-[1-(4-fluorophenethyl)piperidin-4-yl]-6-[1-(2-pyridyl)methyl]indoline]?
Answer: Ki [1]: 1.49 nM; Ki [2]: 0.35 nM

Question: For `NCc1ccc2c(c1)N(C1CCN(CCc3ccc(F)cc3)CC1)CC2` [Example 132, 1-[1-(4-fluorophenethyl)piperidin-4-yl]-6-aminomethylindoline], which Ki [1] is on record?
Answer: 2.08 nM

Question: And the Ki [2]?
Answer: 14.3 nM

Question: Which results are given for `NC(=O)Cc1ccc2c(c1)N(C1CCN(CCc3ccc(F)cc3F)CC1)CC2` [Example 225, 1-[1-(2,4-difluorophenethyl)piperidin-4-yl]-6-carbamoylmethylindoline]?
Answer: Ki [1]: 5.74 nM; Ki [2]: 7.61 nM

Question: For `OC(c1ccc2c(c1)N(C1CCN(CCc3ccc(F)cc3)CC1)CC2)c1ccccn1` (centres unmarked) [Example 174, 1-[1-(4-fluorophenethyl)piperidin-4-yl]-6-[1-hydroxy-1-(2-pyridyl)methyl]indoline], which Ki [1] is on record?
Answer: 0.24 nM

Question: What about the Ki [2] of the same compound?
Answer: 1.85 nM

Question: What does the source list for `CCN1CCC(N2CC(c3ccc(OC)cc3)c3ccccc32)CC1` (centres unmarked) [Example 241, 1-(1-ethylpiperidin-4-yl)-3-(4-methoxyphenyl)indoline]?
Answer: Ki [1]: 360 nM; Ki [2]: 1660 nM

Question: Which Ki [1] does the source give for `O=C1CCCN1Cc1ccc2c(c1)N(C1CCN(CCc3ccc(F)cc3)CC1)CC2` [Example 202, 1-[1-(4-fluorophenethyl)piperidin-4-yl]-6-(2-pyrrolidon-1-yl)methylindoline] here?
Answer: 2.57 nM

Question: And the Ki [2]?
Answer: 5.13 nM

Question: For `FC(F)(F)c1ccc(CCN2CCC(N3CCc4ccccc43)CC2)cc1` [Example 27, 1-[1-(4-trifluoromethylphenethyl)piperidin-4-yl]indoline], which Ki [1] is on record?
Answer: > 200 nM

Question: What about the Ki [2] of the same compound?
Answer: 28.8 nM

Question: With `O=C(c1cccnc1)c1ccc2c(c1)N(C1CCN(CCc3ccc(F)cc3)CC1)CC2` [Example 183, 1-[1-(4-fluorophenethyl)piperidin-4-yl]-6-(3-pyridylcarbonyl)indoline] as the compound, how does the Ki [1] read?
Answer: 1.18 nM

Question: And the Ki [2]?
Answer: 3.86 nM

Question: For `O=C(CCCN1CCC(N2CCc3ccccc32)CC1)c1ccc(F)cc1` [Example 72, 1-{1-[4-(4-fluorophenyl)-4-oxobutyl]piperidin-4-yl}indoline], which Ki [1] is on record?
Answer: 25.9 nM

Question: And the Ki [2]?
Answer: 21.1 nM

Question: With `CCC(=O)NCc1ccc2c(c1)N(C1CCN(CCc3ccc(F)cc3)CC1)CC2` [Example 156, 1-[1-(4-fluorophenethyl)piperidin-4-yl]-6-propionylaminomethylindoline] as the compound, how does the Ki [1] read?
Answer: 7.8 nM

Question: What about the Ki [2] of the same compound?
Answer: 2.6 nM

Question: What does the source list for `OC(c1ccc2c(c1)N(C1CCN(CCc3ccc(F)cc3)CC1)CC2)c1ccc[nH]1` (centres unmarked) [Example 199, 1-[1-(4-fluorophenethyl)piperidin-4-yl]-6-[1-hydroxy-1-(2-pyrrolyl)methyl]indoline]?
Answer: Ki [1]: 1.98 nM; Ki [2]: 1.19 nM

Question: Which Ki [1] does the source give for `CCC(=O)NCc1ccc(CCN2CCC(N3CCc4ccccc43)CC2)cc1` [Example 39] here?
Answer: 1.6 nM

Question: And the Ki [2]?
Answer: 8.9 nM

Question: Which Ki [1] does the source give for `CC(C)NC(=O)Cc1ccc(CCN2CCC(N3CCc4ccccc43)CC2)cc1` [Example 41, 1-[1-(4-N-isopropylcarbamoylmethylphenethyl)piperidin-4-yl]indoline] here?
Answer: 19.8 nM

Question: And the Ki [2]?
Answer: 5.03 nM

Question: What does the source list for `N#Cc1ccc(CCN2CCC(N3CCc4ccccc43)CC2)cn1` [Example 54, 1-{1-[2-(2-cyanopyridin-5-yl)ethyl]piperidin-4-yl}indoline]?
Answer: Ki [1]: 7.1 nM; Ki [2]: 10.3 nM

Question: Which results are given for `Fc1ccc(CCN2CCC(N3CCc4ccc(Cc5nccs5)cc43)CC2)cc1` [Example 214, 1-[1-(4-fluorophenethyl)-piperidin-4-yl]-6-(2-thiazolyl)methylindoline]?
Answer: Ki [1]: 3.5 nM; Ki [2]: 0.9 nM

Question: How did the Ki [1] turn out when `CCNc1ccc2c(c1)N(C1CCN(CCc3ccc(F)cc3)CC1)CC2` [Example 112, 1-[1-(4-fluorophenethyl)piperidin-4-yl]-6-ethylaminoindoline] was run?
Answer: 3.2 nM

Question: What about the Ki [2] of the same compound?
Answer: 165 nM

Question: With `COc1ccc(CCN2CCC(N3CCc4ccccc43)CC2)cn1` [Example 52, 1-{1-[2-(2-methoxy-5-pyridyl)ethyl]piperidin-4-yl}indoline] as the compound, how does the Ki [1] read?
Answer: 2.5 nM

Question: What about the Ki [2] of the same compound?
Answer: 5.6 nM

Question: With `CS(=O)(=O)Nc1cc2c(cc1Cl)CCN2C1CCN(CCc2ccc(F)cc2)CC1` [Example 218, 1-[1-(4-fluorophenethyl)piperidin-4-yl]-5-chloro-6-methanesulfonylaminoindoline] as the compound, how does the Ki [1] read?
Answer: 4.5 nM

Question: What about the Ki [2] of the same compound?
Answer: 11.7 nM

Question: How did the Ki [1] turn out when `COc1ccc(S(=O)(=O)NCCN2CCC(N3CCc4ccccc43)CC2)cc1` [Example 48, 1-{1-[2-(4-methoxyphenylsulfonylamino)ethyl]piperidin-4-yl}indoline] was run?
Answer: 15.3 nM

Question: What about the Ki [2] of the same compound?
Answer: 35 nM

Question: How did the Ki [1] turn out when `Fc1ccc(CCN2CCC(N3CCc4ccc(Cc5cccnc5)cc43)CC2)cc1` [Example 177, 1-[1-(4-fluorophenethyl)piperidin-4-yl]-6-[1-(3-pyridyl)methyl]indoline] was run?
Answer: 0.25 nM

Question: And the Ki [2]?
Answer: 0.92 nM

Question: What does the source list for `c1ccc2c(c1)CCN2C1CCN(CCc2c[nH]c3ccccc23)CC1` [Example 62, 1-{1-[(indol-3-yl)ethyl]-piperidin-4-yl}indoline]?
Answer: Ki [1]: 6.2 nM; Ki [2]: 7.4 nM

Question: Which results are given for `c1ccc2c(c1)CCN2C1CCN(CCc2ccsc2)CC1` [Example 59, 1-{1-[2-(3-thienyl)ethyl]piperidin-4-yl}indoline]?
Answer: Ki [1]: 12 nM; Ki [2]: 28.9 nM

Question: `Fc1ccc(CCN2CCC(C3CCc4cccnc43)CC2)cc1` (centres unmarked) [Example 257, 7-[1-(4-fluorophenethyl)piperidin-4-yl]-5,6-dihydro-7H-pyrindine] was tested. Which Ki [1] did it give?
Answer: 2.8 nM

Question: And the Ki [2]?
Answer: 0.61 nM

Question: Which results are given for `Fc1ccc(CCN2CCC(N3CCc4ccc(Cn5cccc5)cc43)CC2)cc1` [Example 210, 1-[1-(4-fluorophenethyl)piperidin-4-yl]-6-(pyrrol-1-yl)methylindoline]?
Answer: Ki [1]: 2.5 nM; Ki [2]: 4.93 nM

Question: Which Ki [1] does the source give for `OC(CCCN1CCC(N2CCc3ccccc32)CC1)c1ccc(F)cc1` (centres unmarked) [Example 73, 1-{1-[4-(4-fluorophenyl)-4-hydroxybutyl]piperidin-4-yl}indoline] here?
Answer: 34.9 nM

Question: What about the Ki [2] of the same compound?
Answer: 7.2 nM

Question: How did the Ki [1] turn out when `OCCc1ccc(CCN2CCC(N3CCc4ccccc43)CC2)cc1` [Example 24, 1-{1-[4-(2-hydroxyethyl)phenethyl]piperidin-4-yl}indoline] was run?
Answer: 26.5 nM

Question: And the Ki [2]?
Answer: 174 nM

Question: With `Fc1ccc(CCN2CCC(CN3CCc4ccccc43)CC2)cc1` [Example 16, 1-[1-(4-fluorophenethyl)piperidin-4-yl]methylindoline] as the compound, how does the Ki [1] read?
Answer: 109 nM

Question: What about the Ki [2] of the same compound?
Answer: 13.9 nM

Question: Which results are given for `Fc1ccc(CCN2CCC(N3CCc4ccc(Cn5ccnc5)cc43)CC2)cc1` [Example 211, 1-[1-(4-fluorophenethyl)piperidin-4-yl]-6-(imidazol-1-yl)methylindoline]?
Answer: Ki [1]: 0.53 nM; Ki [2]: 1.21 nM

Question: What does the source list for `COc1cc2c(cc1Cl)CCN2C1CCN(CCc2ccc(F)cc2)CC1` [Example 219, 1-[1-(4-fluorophenethyl)piperidin-4-yl]-5-chloro-6-methoxyindoline]?
Answer: Ki [1]: 19.6 nM; Ki [2]: 30.9 nM

Question: How did the Ki [1] turn out when `CC(=O)NCc1ccc2c(c1)N(C1CCN(CCc3ccc(F)cc3F)CC1)CC2` [Example 224, 1-[1-(2,4-difluorophenethyl)piperidin-4-yl]-6-acetamidomethylindoline] was run?
Answer: 3.09 nM

Question: What about the Ki [2] of the same compound?
Answer: 5.11 nM

Question: How did the Ki [1] turn out when `CCN1CCC(N2CC(Cc3ccc(F)cc3)c3ccccc32)CC1` (centres unmarked) [Example 244, 1-(1-ethylpiperidin-4-yl)-3-(4-fluorobenzyl)indoline] was run?
Answer: > 200 nM

Question: What about the Ki [2] of the same compound?
Answer: 2.5 nM

Question: For `Oc1ccc(CCN2CCC(N3CCc4ccccc43)CC2)cc1` [Example 20, 1-[1-(4-hydroxyphenethyl)piperidin-4-yl]indoline], which Ki [1] is on record?
Answer: 15.2 nM

Question: What about the Ki [2] of the same compound?
Answer: 0.22 nM

Question: `Fc1ccc(CCN2CCC(N3CCc4ccc(Cn5cncn5)cc43)CC2)cc1` [Example 213, 1-[1-(4-fluorophenethyl)piperidin-4-yl]-6-(1,2,4-triazol-2-yl)methylindoline] was tested. Which Ki [1] did it give?
Answer: 1.03 nM

Question: What about the Ki [2] of the same compound?
Answer: 0.18 nM

Question: With `OC[C@@H]1CN(CCc2ccc(F)cc2)CC[C@@H]1N1CCc2ccccc21` (relative stereo) [Example 81, cis-1-[1-(4-fluorophenethyl)-3-hydroxymethylpiperidin-4-yl]indoline] as the compound, how does the Ki [1] read?
Answer: 44.3 nM

Question: How did the Ki [1] turn out when `O=C(Cc1ccc2c(c1)N(C1CCN(CCc3ccc(F)cc3)CC1)CC2)NC1CC1` [Example 154, 1-[1-(4-fluorophenethyl)piperidin-4-yl]-6-(cyclopropylcarbamoylmethyl)indoline] was run?
Answer: 6.52 nM

Question: Which Ki [2] does the source give for `COc1ccc2c(c1)CCN2C1CCN(CCc2ccc(F)cc2)CC1` [Example 99, 1-[1-(4-fluorophenethyl)piperidin-4-yl]-5-methoxyindoline] here?
Answer: 8.7 nM
